# Measurements taken from publication PMC8704648 (Pharmaceutics, 2021).
# Conditions: TG, oxidizing atmosphere
structure (smiles),measurement,value
"COc1ccc2cc([C@H](C)C(=O)O)ccc2c1 [Naproxen, (+)-(S)-2-(6-Methoxynaphthalen-2-yl)propanoic acid]","Tonset, the onset of the thermal degradation",249.9 °C
